The subject of test [1] is cGAS/STING pathway in THP1 cells. Put plainly: THP1 cell-based cGAS/STING pathway activity assay (IRF-3-linked luciferase reporter). As to conditions: Homo sapiens, THP-1. In short, it runs like this: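 THP1 cells carrying an IRF-3-driven luciferase reporter were read across a range of compound concentrations, and IC50 values were derived from these concentration responses; the assay upper limit was 100 μM.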

For test [2], the target named is Human cGAS amino acids 155-522 (Homo sapiens (Human), UniProt Q8N884). Put plainly: cGAS biochemical activity assay (ATP remaining, Kinase-Glo Max luminescence). As to conditions: human cGAS 155-522, ATP remaining (Kinase-Glo Max); read-out: cGAS IC50.
Chain of Human cGAS amino acids 155-522 (Q8N884 157-522): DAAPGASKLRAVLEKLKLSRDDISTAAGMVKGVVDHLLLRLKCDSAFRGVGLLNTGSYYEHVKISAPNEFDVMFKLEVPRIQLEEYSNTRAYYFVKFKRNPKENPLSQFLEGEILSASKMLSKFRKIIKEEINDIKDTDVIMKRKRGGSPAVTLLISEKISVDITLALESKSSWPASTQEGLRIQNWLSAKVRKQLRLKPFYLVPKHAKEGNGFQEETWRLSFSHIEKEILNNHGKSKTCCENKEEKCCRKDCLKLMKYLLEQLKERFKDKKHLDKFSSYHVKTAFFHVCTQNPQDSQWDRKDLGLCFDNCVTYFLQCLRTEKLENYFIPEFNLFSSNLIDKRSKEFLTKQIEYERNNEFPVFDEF

In general, IC50 refers to the midpoint of a concentration-inhibition curve. As for `COc1cccc2oc(-c3c(COC4COC4)[nH]c4c(-c5ccccc5)c(C#N)nn4c3=O)nc12` [Compound C1259, 6-(4-methoxybenzo[d]oxazol-2-yl)-5-((oxetan-3-yloxy)methyl)-7-oxo-3-phenyl-4,7-dihydropyrazolo[1,5-a]pyrimidine-2-carbonitrile], the half-maximal inhibitory concentration (IC50) in test [1] is greater than 100 µM; in test [2], less than 20 µM.
Consider `COc1nc(N)cc2oc(-c3c(C)[nH]c4c(-c5ccccc5)c(C#N)nn4c3=O)nc12` [Compound C1218, 6-(6-amino-4-methoxyoxazolo[4,5-c]pyridin-2-yl)-5-methyl-7-oxo-3-phenyl-4,7-dihydropyrazolo[1,5-a]pyrimidine-2-carbonitrile], for which the figures for the IC50 in test [1] and in test [2] were greater than 100 µM and less than 20 µM, respectively.
For `Cc1[nH]c2c(-c3ccccc3)c(C(F)(F)F)nn2c(=O)c1-c1nc(C(=O)O)co1` [Compound C1165, 2-(5-methyl-7-oxo-3-phenyl-2-(trifluoromethyl)-4,7-dihydropyrazolo[1,5-a]pyrimidin-6-yl)oxazole-4-carboxylic acid], the IC50 in test [1] is greater than 100 µM; in test [2] it was less than 20 µM.
On the same counts, the results for `Cc1[nH]c2c(-c3ccccc3)c(C(F)(F)F)nn2c(=O)c1-c1nc2ccccc2n1-c1ccccc1` [Compound C1229, 5-methyl-3-phenyl-6-(1-phenyl-1H-benzo[d]imidazol-2-yl)-2-(trifluoromethyl)pyrazolo[1,5-a]pyrimidin-7(4H)-one] are less than 20 µM and 20 to 250 µM.
Consider `COc1nn2c(=O)c(-c3nc4c(OC)cccc4o3)c(C)[nH]c2c1-c1ccccc1` [Compound C1064, 2-methoxy-6-(4-methoxybenzo[d]oxazol-2-yl)-5-methyl-3-phenylpyrazolo[1,5-a]pyrimidin-7(4H)-one], for which the IC50 is less than 20 µM in test [1] and 20 to 250 µM in test [2].
For `COc1cc(N)c(Cl)c2oc(-c3c(C)[nH]c4c(-c5ccccc5)c(C#N)nn4c3=O)nc12` [Compound C1202, 6-(6-amino-7-chloro-4-methoxybenzo[d]oxazol-2-yl)-5-methyl-7-oxo-3-phenyl-4,7-dihydropyrazolo[1,5-a]pyrimidine-2-carbonitrile], the half-inhibitory concentration (IC50) was 20 to 100 µM in test [1] and less than 20 µM in test [2].
On to `COc1cccc(NC(=O)c2c(C)[nH]c3c(-c4ccccc4)c(C(F)(F)F)nn3c2=O)c1` [Compound A1032, N-(3-methoxyphenyl)-5-methyl-7-oxo-3-phenyl-2-(trifluoromethyl)-4,7-dihydropyrazolo[1,5-a]pyrimidine-6-carboxamide], for which the half-inhibitory concentration (IC50) in test [1] and in test [2] was less than 20 µM throughout.
With `COC1CCCc2oc(-c3c(C)[nH]c4c(-c5ccccc5)c(C(F)(F)F)nn4c3=O)nc21` (stereo not shown) [Compound C1048, 6-(4-methoxy-4,5,6,7-tetrahydrobenzo[d]oxazol-2-yl)-5-methyl-3-phenyl-2-(trifluoromethyl)pyrazolo[1,5-a]pyrimidin-7(4H)-one], the figures for the IC50 in test [1] and in test [2] were 20 to 100 µM and less than 20 µM, respectively.
`Cc1[nH]c2c(-c3ccccc3)c(C(F)(F)F)nn2c(=O)c1-c1nc(CO)c(C(C)C)o1` [Compound C1143, 6-(4-(hydroxymethyl)-5-isopropyloxazol-2-yl)-5-methyl-3-phenyl-2-(trifluoromethyl)pyrazolo[1,5-a]pyrimidin-7(4H)-one]: the half-maximal inhibitory concentration (IC50) in test [1] was greater than 100 µM; in test [2], less than 20 µM.
`Cc1[nH]c2c(-c3ccccc3)c(C(F)(F)F)nn2c(=O)c1C(=O)Nc1cccc2c1OCCC2` [Compound A1107, N-(chroman-8-yl)-5-methyl-7-oxo-3-phenyl-2-(trifluoromethyl)-4,7-dihydropyrazolo[1,5-a]pyrimidine-6-carboxamide]: the IC50 in test [1] and in test [2] was less than 20 µM throughout.
In the case of `Cc1[nH]c2c(-c3ccccc3)c(C(F)(F)F)nn2c(=O)c1-c1nnc(C2CCCN(S(C)(=O)=O)C2)o1` (stereo not shown) [Compound D1040, 5-methyl-6-(5-(1-(methylsulfonyl)piperidin-3-yl)-1,3,4-oxadiazol-2-yl)-3-phenyl-2-(trifluoromethyl)pyrazolo[1,5-a]pyrimidin-7(4H)-one], the figures for the IC50 in test [1] and in test [2] were greater than 100 µM and less than 20 µM, respectively.
For the compound `Cc1[nH]c2c(-c3ccccc3)c(C(F)(F)F)nn2c(=O)c1-c1nc2c(F)cccc2o1` [Compound C1076, 6-(4-fluorobenzo[d]oxazol-2-yl)-5-methyl-3-phenyl-2-(trifluoromethyl)pyrazolo[1,5-a]pyrimidin-7(4H)-one], the IC50 in test [1] and in test [2] was less than 20 µM throughout.
Turning to `COc1cccc2oc(-c3c(C(=O)Nc4ccn(C)n4)[nH]c4c(-c5ccccc5)c(C(F)(F)F)nn4c3=O)nc12` [Compound C1256, 6-(4-methoxybenzo[d]oxazol-2-yl)-N-(1-methyl-1H-pyrazol-3-yl)-7-oxo-3-phenyl-2-(trifluoromethyl)-4,7-dihydropyrazolo[1,5-a]pyrimidine-5-carboxamide], the values for the IC50 in test [1] and in test [2] were greater than 100 µM and less than 20 µM, respectively.
For `COCc1ccccc1NC(=O)c1c(C)[nH]c2c(-c3ccccc3)c(C(F)(F)F)nn2c1=O` [Compound A1072, N-(2-(methoxymethyl)phenyl)-5-methyl-7-oxo-3-phenyl-2-(trifluoromethyl)-4,7-dihydropyrazolo[1,5-a]pyrimidine-6-carboxamide], the 50% inhibitory concentration (IC50) in test [1] fell in the range of 20 to 100 µM; in test [2] it was 20 to 250 µM.
For `COCCOCc1[nH]c2c(-c3ccccc3)c(C#N)nn2c(=O)c1-c1nc2c(OC)cccc2o1` [Compound C1243, 6-(4-methoxybenzo[d]oxazol-2-yl)-5-((2-methoxyethoxy)methyl)-7-oxo-3-phenyl-4,7-dihydropyrazolo[1,5-a]pyrimidine-2-carbonitrile], in that order: less than 20 µM and less than 20 µM.
With `Cc1[nH]c2c(-c3ccccc3)c(C(F)(F)F)nn2c(=O)c1C(=O)Nc1ccccc1S(=O)(=O)C(C)C` [Compound A1051, N-(2-(isopropylsulfonyl)phenyl)-5-methyl-7-oxo-3-phenyl-2-(trifluoromethyl)-4,7-dihydropyrazolo[1,5-a]pyrimidine-6-carboxamide], the figures for the IC50 in test [1] and in test [2] were 20 to 100 µM and less than 20 µM, respectively.
Consider `COc1cccc2oc(-c3c(C(=O)Nc4cn[nH]c4)[nH]c4c(-c5ccccc5)c(C(F)(F)F)nn4c3=O)nc12` [Compound C1244, 6-(4-methoxybenzo[d]oxazol-2-yl)-7-oxo-3-phenyl-N-(1H-pyrazol-4-yl)-2-(trifluoromethyl)-4,7-dihydropyrazolo[1,5-a]pyrimidine-5-carboxamide], for which the half-maximal inhibitory concentration (IC50) in test [1] and in test [2] was less than 20 µM each time.
For `Cc1[nH]c2c(-c3ccccc3)c(C#N)nn2c(=O)c1-c1nc2c(N(C)C)cccc2o1` [Compound C1272, 6-(4-(dimethylamino)benzo[d]oxazol-2-yl)-5-methyl-7-oxo-3-phenyl-4,7-dihydropyrazolo[1,5-a]pyrimidine-2-carbonitrile], the half-maximal inhibitory concentration (IC50) in test [1] and in test [2] was less than 20 µM in each case.
With `Cc1[nH]c2c(-c3ccccc3)c(C(F)(F)F)nn2c(=O)c1C(=O)Nc1cnn(C)c1` [Compound A1077, 5-methyl-N-(1-methyl-1H-pyrazol-4-yl)-7-oxo-3-phenyl-2-(trifluoromethyl)-4,7-dihydropyrazolo[1,5-a]pyrimidine-6-carboxamide], the IC50 was greater than 100 µM in test [1] and less than 20 µM in test [2].
Turning to `Cc1[nH]c2c(-c3ccccc3)c(C(F)(F)F)nn2c(=O)c1C(=O)NCc1ccccc1` [Compound A1023, N-benzyl-5-methyl-7-oxo-3-phenyl-2-(trifluoromethyl)-4,7-dihydropyrazolo[1,5-a]pyrimidine-6-carboxamide], the values for the IC50 in test [1] and in test [2] were 20 to 100 µM and 20 to 250 µM, respectively.
For `COc1cnccc1NC(=O)c1c(C)[nH]c2c(-c3ccccc3)c(C(F)(F)F)nn2c1=O` [Compound A1099, N-(3-methoxypyridin-4-yl)-5-methyl-7-oxo-3-phenyl-2-(trifluoromethyl)-4,7-dihydropyrazolo[1,5-a]pyrimidine-6-carboxamide], in that order: greater than 100 µM and 20 to 250 µM.
Regarding `COc1ccnc(NC(=O)c2c(C)[nH]c3c(-c4ccccc4)c(C(F)(F)F)nn3c2=O)c1` [Compound A1063, N-(4-methoxypyridin-2-yl)-5-methyl-7-oxo-3-phenyl-2-(trifluoromethyl)-4,7-dihydropyrazolo[1,5-a]pyrimidine-6-carboxamide], the figures for the IC50 in test [1] and in test [2] were 20 to 100 µM and less than 20 µM, respectively.
Consider `Cc1[nH]c2c(-c3ccccc3)c(C(F)(F)F)nn2c(=O)c1C(=O)Nc1cccc(S(C)(=O)=O)c1` [Compound A1084, 5-methyl-N-(3-(methylsulfonyl)phenyl)-7-oxo-3-phenyl-2-(trifluoromethyl)-4,7-dihydropyrazolo[1,5-a]pyrimidine-6-carboxamide], for which the half-maximal inhibitory concentration (IC50) in test [1] was 20 to 100 µM; in test [2], less than 20 µM.
For `COc1cc(CO)cc2oc(-c3c(C)[nH]c4c(-c5ccccc5)c(C(F)(F)F)nn4c3=O)nc12` [Compound C1166, 6-(6-(hydroxymethyl)-4-methoxybenzo[d]oxazol-2-yl)-5-methyl-3-phenyl-2-(trifluoromethyl)pyrazolo[1,5-a]pyrimidin-7(4H)-one], in that order: 20 to 100 µM and less than 20 µM.
Turning to `COc1ccc(NC(=O)c2c(C)[nH]c3c(-c4ccccc4)c(C(F)(F)F)nn3c2=O)cn1` [Compound A1088, N-(6-methoxypyridin-3-yl)-5-methyl-7-oxo-3-phenyl-2-(trifluoromethyl)-4,7-dihydropyrazolo[1,5-a]pyrimidine-6-carboxamide], the 50% inhibitory concentration (IC50) lay in the range of 20 to 100 µM in test [1] and 20 to 250 µM in test [2].
Take `CC(=O)N1CCOCC1c1nnc(-c2c(C)[nH]c3c(-c4ccccc4)c(C(F)(F)F)nn3c2=O)o1` (stereo not shown) [Compound D1050, 6-(5-(4-acetylmorpholin-3-yl)-1,3,4-oxadiazol-2-yl)-5-methyl-3-phenyl-2-(trifluoromethyl)pyrazolo[1,5-a]pyrimidin-7(4H)-one]: the half-maximal inhibitory concentration (IC50) in test [1] was greater than 100 µM; in test [2], 20 to 250 µM.

The values are drawn from patent US10738056B2 (Aduro BioTech, Inc., priority 2017, dated 2020).
